Assay results as given in patent publication US10450356B2, “PRAME derived peptides and immunogenic compositions comprising these” (Academisch Ziekenhuis Leiden H.O.D.N. LUMC, priority 2007, dated 2019).

Target: T1, 20S proteasomes purified from a B-LCL cell line (immunoproteasomes) (Homo sapiens, UniProt P28062+P28065+P40306)
T1 construct: 20S proteasomes were purified from a B-LCL cell line; endogenous in cells; purified after Groettrup et al. 1995
Experiment: In vitro proteasome mediated cleavage analysis
Assay type: biochemical
Design: key to Intact in fragment / Intact Fragment: intact epitope found in digestion fragments: (+), present; (-), not present; key to Processing C-term: generation by proteasome-mediated digestion of fragments containing the correct C-terminus: (++) fragments present for >5%; (+) present for <5%; (-) no fragments containing the C-term. were found
Conditions: for Processing C-term: generation by proteasome-mediated digestion of fragments containing the correct C-terminus: 1 h digestion; for Intact Fragment: intact epitope found in digestion fragments: after 1 h digestion; for C-term. generation: generation of C-terminus of the epitope after 1 h digestion; for Intact in fragment: intact epitope found in digestion fragments after 1 h digestion
In short: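 Immunoproteasome-rich 20S proteasomes from a B-LCL line (high LMP2/7 content by 2-D immunoblot). 27-mer peptides (20 μg) were digested with 1 μg proteasome at 37° C for 1 h, 4 h and 24 h, then stopped with TFA. Fragments were identified by nanoelectrospray Q-TOF MS, with peak intensities giving relative peptide amounts.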

Row | SMILES | Processing C-term: generation by proteasome-mediated digestion of fragments containing the correct C-terminus | Intact Fragment: intact epitope found in digestion fragments | C-term. generation | Intact in fragment
1 | CC(C)C[C@H](NC(=O)[C@H](Cc1ccccc1)NC(=O)[C@H](Cc1ccccc1)NC(=O)[C@H](CC(C)C)NC(=O)[C@H](CO)NC(=O)[C@H](CC(=O)O)NC(=O)[C@@H](NC(=O)[C@H](Cc1ccc(O)cc1)NC(=O)[C@@H](N)CC(C)C)C(C)C)C(=O)O | ++ ((++) fragments present for >5%) | + | ++ (abundant (++) present for >5%) | +
2 | CC(C)C[C@H](NC(=O)[C@H](C)NC(=O)[C@H](CCC(N)=O)NC(=O)[C@H](CC(C)C)NC(=O)[C@H](CS)NC(=O)[C@H](CCC(N)=O)NC(=O)[C@H](CC(C)C)NC(=O)[C@H](CO)NC(=O)[C@@H](N)CC(C)C)C(=O)N[C@@H](Cc1ccc(O)cc1)C(=O)O | - | - |  | 
3 | CC(C)C[C@H](NC(=O)[C@H](CCC(N)=O)NC(=O)[C@H](CC(=O)O)NC(=O)[C@H](CC(C)C)NC(=O)[C@H](CCCNC(=N)N)NC(=O)CNC(=O)[C@H](CCCNC(=N)N)NC(=O)[C@H](CC(C)C)NC(=O)[C@H](Cc1ccccc1)NC(=O)[C@@H](N)Cc1ccccc1)C(=O)O | - | - |  | 
4 | CC[C@H](C)[C@H](NC(=O)[C@H](CO)NC(=O)CNC(=O)[C@H](Cc1c[nH]c2ccccc12)NC(=O)[C@H](CC(C)C)NC(=O)[C@@H](N)CCCNC(=N)N)C(=O)N[C@@H](CCC(N)=O)C(=O)N[C@@H](CO)C(=O)N[C@@H](CCCNC(=N)N)C(=O)O | - | - |  | 
5 | CC(C)C[C@H](NC(=O)[C@H](CC(C)C)NC(=O)[C@H](CC(C)C)NC(=O)[C@H](CCCNC(=N)N)NC(=O)[C@H](CCCNC(=N)N)NC(=O)[C@H](CC(C)C)NC(=O)[C@@H](N)CC(N)=O)C(=O)N[C@@H](CO)C(=O)N[C@@H](Cc1c[nH]cn1)C(=O)O | - | - |  | 
6 | CC(C)C[C@H](NC(=O)[C@H](CC(C)C)NC(=O)[C@H](CCC(N)=O)NC(=O)[C@H](CC(=O)O)NC(=O)[C@H](CC(C)C)NC(=O)[C@H](CCCNC(=N)N)NC(=O)CNC(=O)[C@H](CCCNC(=N)N)NC(=O)[C@H](CC(C)C)NC(=O)[C@@H](N)Cc1ccccc1)C(=O)O | - | - |  | 
7 | CC(C)C[C@H](NC(=O)[C@H](Cc1ccccc1)NC(=O)[C@H](Cc1ccccc1)NC(=O)[C@H](CC(C)C)NC(=O)[C@H](CO)NC(=O)[C@H](CC(=O)O)NC(=O)[C@@H](NC(=O)[C@@H](N)Cc1ccc(O)cc1)C(C)C)C(=O)N[C@@H](CCCNC(=N)N)C(=O)O | + ((+) present for <5%) | - |  | 
8 | CC(C)C[C@H](NC(=O)[C@H](CO)NC(=O)[C@H](CCC(N)=O)NC(=O)CNC(=O)[C@H](C)NC(=O)[C@H](CC(C)C)NC(=O)[C@H](CCC(=O)O)NC(=O)[C@@H](NC(=O)[C@H](CC(C)C)NC(=O)[C@@H](N)CCCNC(=N)N)C(C)C)C(=O)O | - | - |  | 
9 | CC(C)C[C@H](NC(=O)[C@@H](NC(=O)[C@H](Cc1c[nH]cn1)NC(=O)[C@@H](NC(=O)[C@H](CC(C)C)NC(=O)[C@H](CC(N)=O)NC(=O)[C@H](CO)NC(=O)[C@H](CC(C)C)NC(=O)CN)[C@@H](C)O)C(C)C)C(=O)O | + ((+) present for <5%) | - |  | 
10 | CC(C)C[C@H](NC(=O)[C@H](CO)NC(=O)[C@H](C)NC(=O)[C@H](CCCNC(=N)N)NC(=O)[C@H](CC(N)=O)NC(=O)CNC(=O)[C@H](CO)NC(=O)[C@@H](N)Cc1c[nH]c2ccccc12)C(=O)N[C@@H](Cc1ccc(O)cc1)C(=O)O | - | - |  | 
11 | CC[C@H](C)[C@H](NC(=O)[C@H](C)NC(=O)[C@H](CC(C)C)NC(=O)[C@H](C)N)C(=O)N[C@@H](C)C(=O)N[C@@H](C)C(=O)N[C@@H](CC(C)C)C(=O)N[C@@H](CCC(=O)O)C(=O)N[C@@H](CC(C)C)C(=O)N[C@@H](CC(C)C)C(=O)O | - | - |  | 
12 | CC(C)C[C@H](NC(=O)[C@@H]1CCCN1C(=O)[C@H](CCC(=O)O)NC(=O)[C@@H]1CCCN1C(=O)[C@H](CO)NC(=O)[C@@H](NC(=O)[C@H](CC(=O)O)NC(=O)[C@@H](NC(=O)[C@@H](N)CC(C)C)[C@@H](C)O)C(C)C)C(=O)N[C@@H](CCC(N)=O)C(=O)O | + ((+) present for <5%) | + | + (low abundant (+) present for <5%) | +
13 | CC(C)C[C@H](NC(=O)[C@H](CCC(=O)O)NC(=O)[C@H](CS)NC(=O)[C@H](CC(C)C)NC(=O)[C@H](CC(C)C)NC(=O)[C@H](CCC(=O)O)NC(=O)[C@H](CCCNC(=N)N)NC(=O)[C@H](CC(C)C)NC(=O)[C@@H](N)CCCNC(=N)N)C(=O)O | - | - |  | 
14 | CC[C@H](C)[C@H](NC(=O)[C@H](CO)NC(=O)CNC(=O)[C@H](Cc1c[nH]c2ccccc12)NC(=O)[C@H](CC(C)C)NC(=O)[C@@H](N)CCCNC(=N)N)C(=O)N[C@@H](CCC(N)=O)C(=O)N[C@@H](CO)C(=O)N[C@@H](CCCNC(=N)N)C(=O)N[C@@H](Cc1ccc(O)cc1)C(=O)O | - | - |  | 
15 | CC[C@H](C)[C@H](NC(=O)[C@@H](N)Cc1ccc(O)cc1)C(=O)N[C@@H](C)C(=O)N[C@@H](CCC(N)=O)C(=O)N[C@@H](Cc1ccccc1)C(=O)N[C@H](C(=O)N[C@@H](CO)C(=O)N[C@@H](CCC(N)=O)C(=O)N[C@@H](Cc1ccccc1)C(=O)N[C@@H](CC(C)C)C(=O)O)[C@@H](C)O | ++ ((++) fragments present for >5%) | + | ++ (abundant (++) present for >5%) | +

The next lines start with the values.

Row | Processing C-term: generation by proteasome-mediated digestion of fragments containing the correct C-terminus | Intact Fragment: intact epitope found in digestion fragments | C-term. generation | Intact in fragment | SMILES
16 | - | - |  |  | CC[C@H](C)[C@H](NC(=O)[C@@H]1CCCN1C(=O)[C@H](CCC(=O)O)NC(=O)[C@@H]1CCCN1C(=O)[C@H](CC(=O)O)NC(=O)[C@H](Cc1ccc(O)cc1)NC(=O)[C@H](Cc1ccccc1)NC(=O)[C@@H](N)[C@@H](C)O)C(=O)N[C@@H](CC(C)C)C(=O)O
17 | - | - |  |  | CC(C)C[C@H](NC(=O)[C@H](Cc1ccc(O)cc1)NC(=O)[C@H](CO)NC(=O)[C@H](Cc1ccccc1)NC(=O)[C@H](CC(C)C)NC(=O)[C@H](CCC(=O)O)NC(=O)[C@H](CC(=O)O)NC(=O)[C@H](CS)NC(=O)[C@H](C)NC(=O)CN)C(=O)O
18 | + ((+) present for <5%) | + | + (low abundant (+) present for <5%) | + | CC(C)C[C@H](NC(=O)[C@H](Cc1ccc(O)cc1)NC(=O)[C@@H]1CCCN1C(=O)[C@H](CO)NC(=O)[C@H](Cc1ccccc1)NC(=O)[C@H](CCCCN)NC(=O)[C@H](C)NC(=O)[C@H](CC(C)C)NC(=O)[C@@H](N)[C@@H](C)O)C(=O)O
19 | - | - |  |  | CC(C)C[C@H](NC(=O)[C@@H](NC(=O)[C@@H]1CCCN1C(=O)[C@H](CC(C)C)NC(=O)[C@H](CCCCN)NC(=O)[C@H](Cc1c[nH]c2ccccc12)NC(=O)[C@@H](NC(=O)[C@@H](N)CS)[C@@H](C)O)[C@@H](C)O)C(=O)N[C@@H](C)C(=O)O
20 | ++ ((++) fragments present for >5%) |  | ++ (abundant (++) present for >5%) |  | CSCC[C@H](NC(=O)[C@H](Cc1ccccc1)NC(=O)[C@H](CC(C)C)NC(=O)[C@@H]1CCCN1C(=O)[C@@H]1CCCN1C(=O)[C@H](Cc1ccccc1)NC(=O)[C@@H](N)CC(C)C)C(=O)N[C@@H](C)C(=O)N[C@@H](C)C(=O)N[C@@H](Cc1ccccc1)C(=O)O
21 | - | - |  |  | CC[C@H](C)[C@H](NC(=O)[C@H](CCSC)NC(=O)[C@H](CCC(N)=O)NC(=O)CNC(=O)[C@H](CC(C)C)NC(=O)[C@H](Cc1ccc(O)cc1)NC(=O)[C@@H]1CCCN1C(=O)[C@H](CO)NC(=O)[C@H](Cc1ccccc1)NC(=O)[C@@H](N)CCCCN)C(=O)O
22 | - | - |  |  | CC(C)C[C@H](NC(=O)CNC(=O)[C@H](CC(=O)O)NC(=O)[C@H](CC(C)C)NC(=O)[C@@H](NC(=O)[C@H](C)NC(=O)[C@H](CCCCN)NC(=O)[C@H](Cc1ccccc1)NC(=O)[C@@H](N)[C@@H](C)O)C(C)C)C(=O)O
